Earlier results on one compound are cited in patent US4177199A, “Silver salts of phosphanilic acid” (Bristol-Myers Company, priority 1978, dated 1979).

The conditions of data set [1]: laboratory animals.
The conditions of data set [2]: laboratory animals. This is another data set of the same source.
For data set [3], the system named is experimental tuberculosis.
For a further data set, the system named is Histoplasma capsulatum. Conditions: mouse, in vivo, iv.
In data set [4] the test system is a variety of bacterial species.
In the next data set the test system is S. typhosa. Conditions: mice infected with S. typhosa.
The subject of the next data set is Ps. fluorescens. Conditions: mice infected with Ps. fluorescens.
Another data set has as its system Plasmodium berghei. Conditions: mice infected with Plasmodium berghei.
The conditions of data set [5]: by admixture or salt formation.

SMILES strings stand for the structures.

With `Nc1ccc(P(=O)(O)O)cc1` [phosphanilic acid], in [1], the absorption result is reported as “poor”. Also, the toxicity result in [2] was “low”. In addition, in the data set with tuberculosis, the “tubercularstatic activity in vitro” value is “good”. In addition, the “effect in vivo against experimental tuberculosis” value in data set [3] is given as “no effect”. Further, the “protective effect against Histoplasma capsulatum infection” value in the data set with Histoplasma capsulatum was “some protective effect”. The “in vitro activity among compounds tested” value in data set [4] (aromatic phosphonic and phosphinic acids) was “generally the most active of the compounds tested”. Moreover, in data set [4] (molar basis), the “activity compared with sulfathiazole” value is on record as “approached that of sulfathiazole”. The “efficacy in vivo in infected mice” value in the data set with S. typhosa, in the data set on Ps. fluorescens and in the data set on Plasmodium berghei was “effective” throughout. Also, in [5], the “potentiation of various tetracycline antibiotics” value is “potentiation”.
